Data: patent publication US8642642B2, “Heterocyclic arylsulphones suitable for treating disorders that respond to modulation of the serotonin 5HT6 receptor” (Abbott Laboratories, priority 2006, dated 2014)
pKi: −log10 of the molar value. Structures can show the parent of a compound that is named as a salt.

How the values were obtained:
[1] = target: T1, human 5-HT6 receptor (Homo sapiens, UniProt P50406); assay: Human 5-HT6 receptor binding assay (3H-LSD displacement); settings: membranes from HEK-293 cells, 2 nM 3H-LSD
T1 construct: expressed in transfected cells
T1 sequence (P50406 whole entry): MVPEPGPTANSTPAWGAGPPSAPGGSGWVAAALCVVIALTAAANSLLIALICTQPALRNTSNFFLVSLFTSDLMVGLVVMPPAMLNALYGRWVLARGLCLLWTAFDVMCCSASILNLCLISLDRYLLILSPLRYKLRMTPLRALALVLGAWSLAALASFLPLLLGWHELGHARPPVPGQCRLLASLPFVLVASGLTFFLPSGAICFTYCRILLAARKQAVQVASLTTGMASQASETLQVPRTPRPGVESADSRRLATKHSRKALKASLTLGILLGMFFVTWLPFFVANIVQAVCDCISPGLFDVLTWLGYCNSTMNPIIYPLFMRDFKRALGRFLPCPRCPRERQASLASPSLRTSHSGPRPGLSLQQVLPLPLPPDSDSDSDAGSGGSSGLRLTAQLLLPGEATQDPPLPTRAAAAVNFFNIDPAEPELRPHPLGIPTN
Experimental: (§1) The substance to be tested was either dissolved in methanol/Chremophor® (BASF-AG) or in dimethyl sulfoxide and then diluted with water to the desired concentration.
The compounds were dissolved in a concentration of 10^−2 M or 10^−3 M in DMSO. Further dilutions were performed in incubation buffer.
The procedure for the binding assay was based on the method of Monsma et al. (1993) Mol Pharmacol 43: 320-327. The binding reaction was carried out in a total volume of 0.250 ml for 60 min at 37° C. Membranes from HEK-293 cells stably expressing the human 5-HT6 receptor were incubated with 2 nM ^3H-LSD in the presence or absence of various concentrations of test compound for 60 min at 37° C. Non-specific binding was defined with 100 μM Serotonin (5-HT). Assays were performed in duplicate. Bound and free radioligand was separated by filtration and bound radioactivity determined by liquid scintillation counting.
The specific ligand binding to the receptors was defined as the difference between the total binding and the nonspecific binding determined in the presence of an excess of unlabelled 5-HT. The results are expressed as a percent of control specific binding obtained in the presence of compound. The IC50 values (concentration causing a half-maximal inhibition of control specific binding) and Hill coefficients (nH) were determined by non-linear regression analysis of the competition curves using Hill equation curve fitting.
The inhibition constants (Ki) were calculated from the Cheng Prusoff equation (Ki=IC50/(1+(L/KD)), where L=concentration of radioligand in the assay, and KD=affinity of the radioligand for the receptor).

[2] = target: T2, human dopamine D3 receptors (Homo sapiens, UniProt P35462); assay: Dopamine D3 receptor binding ([125I]-iodosulpride); settings: for pKi: membranes from HEK-293 cells, 0.1 nM [125I]-iodosulpride; for Ki(D2)/Ki(D3): ratio of receptor binding constants, D2L versus D3
T2 construct: expressed in transfected cells
T2 sequence (P35462 whole entry): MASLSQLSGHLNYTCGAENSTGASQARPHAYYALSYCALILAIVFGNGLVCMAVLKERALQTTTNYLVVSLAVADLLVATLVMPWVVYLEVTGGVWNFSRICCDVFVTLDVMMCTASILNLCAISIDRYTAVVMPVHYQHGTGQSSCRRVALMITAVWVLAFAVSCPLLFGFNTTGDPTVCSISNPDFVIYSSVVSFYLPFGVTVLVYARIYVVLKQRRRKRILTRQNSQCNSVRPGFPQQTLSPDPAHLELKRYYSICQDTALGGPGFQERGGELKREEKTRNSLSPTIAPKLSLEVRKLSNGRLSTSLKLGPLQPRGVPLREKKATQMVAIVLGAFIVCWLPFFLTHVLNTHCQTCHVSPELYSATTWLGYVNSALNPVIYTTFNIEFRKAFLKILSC
Experimental: as §1
Each assay mixture was run in triplicate.
The incubation buffer contained 50 mM tris, 120 mM NaCl, 5 mM KCl, 2 mM CaCl2, 2 mM MgCl2 and 0.1% bovine serum albumin, 10 μM quinolone and 0.1% ascorbic acid (prepared fresh daily). The buffer was adjusted to pH 7.4 with HCl.
After having been incubated at 25° C. for 60 minutes, the assay mixtures were filtered through a Whatman GF/B glass fiber filter under vacuum using a cell collecting device. The filters were transferred to scintillation viols using a filter transfer system. After 4 ml of Ultima Gold® (Packard) have been added, the samples were shaken for one hour and the radioactivity was then counted in a Beta-Counter (Packard, Tricarb 2000 or 2200CA). The cpm values were converted into dpm using a standard quench series and the program belonging to the instrument.
The inhibition curves were analyzed by means of iterative nonlinear regression analysis using the Statistical Analysis System (SAS) which is similar to the “LIGAND” program described by Munson and Rodbard.

Molecule | pKi [1] | pKi [2] | Ki(D2)/Ki(D3) [2]
3-Trifluoromethyl-N-[4-((S)-1-propyl-pyrrolidin-3-yl)-phenyl]-benzenesulfonamide [Example 4] | 8.00 to 9.00 | 7.30 to 8.00 | + (between 10 and 50)
CCCN1C[C@@H](CF)[C@H](c2ccc(NS(=O)(=O)c3cccc(C(F)(F)F)c3)cc2)C1 (relative stereo) [Example 95, N-[4-(trans-4-Fluoromethyl-1-propyl-pyrrolidin-3-yl)-phenyl]-3-trifluoromethyl-benzenesulfonamide] | 8.00 to 9.00 | 7.30 to 8.00 | + (between 10 and 50)
CCCN1CC[C@@H](c2ccc(NS(=O)(=O)c3cc(F)c(Br)cc3F)cc2)C1 [Example 3, 4-Bromo-3,6-difluoro-N-[4-((S)-1-propyl-pyrrolidin-3-yl)-phenyl]-benzenesulfonamide] | 7.30 to 8.00 | 8.00 to 9.00 | +++ (between 100 and 150)
CCCN1CC(c2ccc(NS(=O)(=O)c3cccc(C)c3)cc2)C1 [Example 50, 3-Methyl-N-[4-(1-propyl-azetidin-3-yl)-phenyl]-benzenesulfonamide] | 6.82 to 7.30 |  | 
CCCN1CC(c2ccc(NS(=O)(=O)c3cccc(Cl)c3Cl)cc2)C1 [Example 51, 2,3-Dichloro-N-[4-(1-propyl-azetidin-3-yl)-phenyl]-benzenesulfonamide] | 6.82 to 7.30 |  | 
CCCN1CC(c2ccc(NS(=O)(=O)c3cccc(Br)c3)cc2)C1 [Example 52, 3-Bromo-N-[4-(1-propyl-azetidin-3-yl)-phenyl]-benzenesulfonamide] | 7.30 to 8.00 |  | 
CCCN1CC(c2ccc(NS(=O)(=O)c3ccc(F)c(F)c3)cc2)C1 [Example 54, 3,4-Difluoro-N-[4-(1-propyl-azetidin-3-yl)-phenyl]-benzenesulfonamide] | 6.82 to 7.30 |  | 
CCCN1CC[C@@H](c2ccc(NS(=O)(=O)c3ccc(Br)s3)cc2)C1.Cl [Example 59, 5-Bromo-thiophene-2-sulfonic acid [4-((S)-1-propyl-pyrrolidin-3-yl)-phenyl]-amide hydrochloride] | 8.00 to 9.00 | 8.00 to 9.00 | +++ (between 100 and 150)
CCCc1ccc(S(=O)(=O)Nc2ccc([C@@H]3CCN(CCC)C3)cc2)s1 [Example 60, 5-Propyl-thiophene-2-sulfonic acid [4-((S)-1-propyl-pyrrolidin-3-yl)-phenyl]-amide] | 7.30 to 8.00 | > 9.00 | + (between 10 and 50)
CCCN1CC[C@@H](c2ccc(NS(=O)(=O)c3ccc(OC(F)(F)F)c(Br)c3)cc2)C1.Cl [Example 61, 3-Bromo-N-[4-((S)-1-propyl-pyrrolidin-3-yl)-phenyl]-4-trifluoromethoxy-benzenesulfonamide hydrochloride] | 7.30 to 8.00 | 8.00 to 9.00 | ++ (between 50 and 100)
CCCN1CC[C@@H](c2ccc(NS(=O)(=O)c3ccc(Cl)s3)cc2)C1 [Example 62, 5-Chloro-thiophene-2-sulfonic acid [4-((S)-1-propyl-pyrrolidin-3-yl)-phenyl]-amide] | 8.00 to 9.00 | 8.00 to 9.00 | ++++ (>150)
O=S(=O)(Nc1cccc(C2CCCNC2)c1)c1cccc(OC(F)(F)F)c1 (stereo not shown) [Example 63, N-(3-Piperidin-3-yl-phenyl)-3-trifluoromethoxy-benzenesulfonamide hydrochloride] | 7.30 to 8.00 |  | 
CCCN1CC[C@@H](c2ccc(NS(=O)(=O)c3cccc(C#N)c3)cc2)C1 [Example 64, 3-Cyano-N-[4-((S)-1-propyl-pyrrolidin-3-yl)-phenyl]-benzenesulfonamide hydrochloride] | 6.82 to 7.30 |  | 
O=S(=O)(Nc1cccc([C@@H]2CCN(Cc3ccccc3)C2)c1)c1cccc(C(F)(F)F)c1 [Example 65, N-[3-((S)-1-Benzyl-pyrrolidin-3-yl)-phenyl]-3-trifluoromethyl-benzene sulfonamide] | 7.30 to 8.00 |  | 
CCCN1CC[C@@H](c2ccc(NS(=O)(=O)c3ccc(-c4ccccn4)s3)cc2)C1.Cl [Example 66, 5-Pyridin-2-yl-thiophene-2-sulfonic acid [4-((S)-1-propyl-pyrrolidin-3-yl)-phenyl]-amide hydrochloride] | 7.30 to 8.00 | > 9.00 | +++ (between 100 and 150)
O=S(=O)(Nc1cccc([C@@H]2CCNC2)c1)c1cccc(C(F)(F)F)c1 [Example 67, N-[3-((S)-pyrrolidin-3-yl)-phenyl]-3-trifluoromethyl-benzene sulfonamide] | 8.00 to 9.00 |  | 
Cl.O=S(=O)(Nc1ccc([C@@H]2CCNC2)cc1)c1ccc(-c2ccccn2)s1 [Example 69, 5-Pyridin-2-yl-thiophene-2-sulfonic acid ((S)-4-pyrrolidin-3-yl-phenyl)-amide hydrochloride] | 7.30 to 8.00 | 7.30 to 8.00 | +++ (between 100 and 150)
CCCN1CC[C@@H](c2ccc(NS(=O)(=O)c3cccc(Br)c3)cc2)C1 [Example 70, 3-Bromo-N-[4-((S)-1-propyl-pyrrolidin-3-yl)-phenyl]-benzenesulfonamide] | 8.00 to 9.00 | 8.00 to 9.00 | ++ (between 50 and 100)
CCCN1CC[C@@H](c2ccc(NS(=O)(=O)c3cccc(N4CCCC4)c3)cc2)C1 [Example 71, N-[4-((S)-1-Propyl-pyrrolidin-3-yl)-phenyl]-3-pyrrolidin-1-yl-benzenesulfonamide] | 8.00 to 9.00 | 7.30 to 8.00 | + (between 10 and 50)
CCCN1CC[C@@H](c2ccc(NS(=O)(=O)c3ccc(-n4cccn4)s3)cc2)C1.Cl [Example 73, 5-Pyrazol-1-yl-thiophene-2-sulfonic acid [4-((S)-1-propyl-pyrrolidin-3-yl)-phenyl]-amide hydrochloride] | 7.30 to 8.00 | 8.00 to 9.00 | ++ (between 50 and 100)
CCCN1CC[C@@H](c2ccc(NS(=O)(=O)c3cc(Cl)c(Cl)s3)cc2)C1.Cl [Example 74, 4,5-Dichloro-thiophene-2-sulfonic acid [4-((S)-1-propyl-pyrrolidin-3-yl)-phenyl]-amide hydrochloride] | 8.00 to 9.00 | 7.30 to 8.00 | ++ (between 50 and 100)
CCCN1CC[C@@H](c2ccc(NS(=O)(=O)c3ccc(-c4csnn4)s3)cc2)C1.Cl [Example 75, 5-[1,2,3]Thiadiazol-4-yl-thiophene-2-sulfonic acid [4-((S)-1-propyl-pyrrolidin-3-yl)-phenyl]-amide hydrochloride] | 7.30 to 8.00 | 7.30 to 8.00 | + (between 10 and 50)
CCCN1CC[C@@H](c2ccc(NS(=O)(=O)c3ccc(C(F)(F)F)s3)cc2)C1.Cl [Example 76, 5-Trifluoromethyl-thiophene-2-sulfonic acid [4-((S)-1-propyl-pyrrolidin-3-yl)-phenyl]-amide hydrochloride] | 8.00 to 9.00 | 8.00 to 9.00 | +++ (between 100 and 150)
CN1CC[C@@H](c2cccc(NS(=O)(=O)c3cccc(C(F)(F)F)c3)c2)C1 [Example 77, N-[3-((S)-1-Methyl-pyrrolidin-3-yl)-phenyl]-3-trifluoromethyl-benzenesulfonamide hydrochloride] | 8.00 to 9.00 |  | 
CCCN1CC[C@@H](c2ccc(NS(=O)(=O)c3cc(C(F)(F)F)ccc3OC)cc2)C1 [Example 91, 2-Methoxy-N-[4-((S)-1-propyl-pyrrolidin-3-yl)-phenyl]-5-trifluoromethyl-benzenesulfonamide] | 7.30 to 8.00 |  | 
CCCN1C[C@H](c2ccc(NS(=O)(=O)c3cccc(C(F)(F)F)c3)cc2)C[C@H]1C [Example 94, N-[4-((3S,5R)-5-Methyl-1-propyl-pyrrolidin-3-yl)-phenyl]-3-trifluoromethyl-benzenesulfonamide hydrochloride] | 7.30 to 8.00 |  | 
O=S(=O)(Nc1ccc([C@@H]2CCNC2)cc1)c1cccc(C(F)(F)F)c1 [Example 101, N—((S)-4-Pyrrolidin-3-yl-phenyl)-3-trifluoromethyl-benzenesulfonamide] | 7.30 to 8.00 |  | 
CCCN1CC[C@@H](c2ccc(NS(=O)(=O)c3cc(C(F)(F)F)ccc3F)cc2)C1 [Example 104, 2-Fluoro-N-[4-((S)-1-propyl-pyrrolidin-3-yl)-phenyl]-5-trifluoromethyl-benzenesulfonamide] | 7.30 to 8.00 |  | 
